Values of other authors, collected in patent US6406713B1 (priority 1987, dated 2002).

Assays:
HTLV-III/LAV virus = settings: HTLV-III/LAV infected cell cultures
histoplasmosis = settings: mouse, in vivo

| Compound | protection of target cells against cytopathic effects of the virus (HTLV-III/LAV virus) | serum and tissue distributions (histoplasmosis) | toxicity versus free amphotericin B preparations (histoplasmosis) |
| --- | --- | --- | --- |
| COC(=O)[C@H]1[C@@H]2C[C@@H](O[C@@H]3O[C@H](C)[C@@H](O)[C@H](N)[C@@H]3O)/C=C/C=C/C=C/C=C/C=C/C=C/C=C/[C@H](C)[C@@H](O)[C@@H](C)[C@H](C)OC(=O)C[C@H](O)C[C@H](O)CC[C@@H](O)[C@H](O)C[C@H](O)C[C@](O)(C[C@@H]1O)O2 [amphotericin B methyl ester] | protected target cells against the cytopathic effects of the virus |  |  |
| C[C@@H]1[C@H](O)[C@@H](C)/C=C/C=C/C=C/C=C/C=C/C=C/C=C/[C@H](O[C@@H]2O[C@H](C)[C@@H](O)[C@H](N)[C@@H]2O)C[C@@H]2O[C@](O)(C[C@@H](O)C[C@@H](O)[C@H](O)CC[C@@H](O)C[C@@H](O)CC(=O)O[C@H]1C)C[C@H](O)[C@H]2C(=O)O [amphotericin B] | protected target cells against the cytopathic effects of the virus |  |  |
| liposomal-amphotericin B |  | lower serum levels and higher liver and spleen concentrations | less toxic |
